Measured values: ChEMBL document CHEMBL1201862, “PubChem BioAssay data set” (2004)
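Protocol summary: plate cells (96-well), add compound at 5 concentrations, incubate 48 h, interpolate endpoints linearly. Abbreviation: GI50, concentration required for 50% inhibition of growth.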 Active and inactive are the calls of the source. No stated cut-off is given here; in the data, active = GI50 up to about 1.1 µM and inactive = higher.

Key:
Test in all cases: growth of human tumour cells (NCI), 48 h
[1] = system: NCI-H460
[2] = system: NCI-H226
[3] = system: PC-3
[4] = system: SF-295
[5] = system: UACC-62
[6] = system: SR
[7] = system: Hs-578T
[8] = system: SNB-75
[9] = system: IGROV-1
[10] = system: SNB-19
[11] = system: HT-29
[12] = system: M14
[13] = system: SF-539
[14] = system: EKVX
[15] = system: NCI-H23
[16] = system: OVCAR-4
[17] = system: HOP-92

| Structure (SMILES) | GI50 [1] | GI50 [2] | GI50 [3] | GI50 [4] | GI50 [5] | GI50 [6] | GI50 [7] | GI50 [8] | GI50 [9] | GI50 [10] | GI50 [11] | GI50 [12] | GI50 [13] | GI50 [14] | GI50 [15] | GI50 [16] | GI50 [17] |
| --- | --- | --- | --- | --- | --- | --- | --- | --- | --- | --- | --- | --- | --- | --- | --- | --- | --- |
| NNc1nncc2[nH]cnc12 | > 100 µM (inactive) | > 100 µM (inactive) | > 100 µM (inactive) | > 100 µM (inactive) | > 100 µM (inactive) | > 100 µM (inactive) | > 100 µM (inactive) | > 100 µM (inactive) | > 100 µM (inactive) | > 100 µM (inactive) | > 100 µM (inactive) | > 100 µM (inactive) | > 100 µM (inactive) | > 100 µM (inactive) | > 100 µM (inactive) |  |  |
| COc1cc(/C=C2\CCc3cc(OC)c(OC)cc3C2=O)cc(OC)c1 | 5.41 µM (inactive) | 5.04 µM (inactive) | 8.55 µM (inactive) | 3.92 µM (inactive) | 3.75 µM (inactive) |  | 23.9 µM (inactive) | 21.3 µM (inactive) | 7.35 µM (inactive) | > 28.6 µM (inactive) | 3.49 µM (inactive) | 5.47 µM (inactive) | 5.38 µM (inactive) | 24.3 µM (inactive) | 10.9 µM (inactive) | 21.4 µM (inactive) | 24.3 µM (inactive) |
| O=C1NC(NNc2ccccc2)=N/C1=C\c1ccco1 | 22.4 µM (inactive) |  | 19.3 µM (inactive) | 39.5 µM (inactive) | 4.29 µM (inactive) |  | 26.2 µM (inactive) | 24.7 µM (inactive) | 15.7 µM (inactive) | 43.5 µM (inactive) | 18.6 µM (inactive) | 8.47 µM (inactive) |  | 18.7 µM (inactive) | 18.8 µM (inactive) | 14.6 µM (inactive) | 14.8 µM (inactive) |
| C[C@@H]1CC[C@@H]2[C@@H](C1)O[C@@H]([C@H](C)OCc1ccccc1)SC2(C)C | 20.7 µM (inactive) | 18.4 µM (inactive) | 31.5 µM (inactive) | 17.5 µM (inactive) | 36.4 µM (inactive) | 18.2 µM (inactive) |  | 16.4 µM (inactive) | 41.8 µM (inactive) | 21.3 µM (inactive) | 36 µM (inactive) | 16.8 µM (inactive) | 29.2 µM (inactive) | 45 µM (inactive) | 31.8 µM (inactive) | 28.3 µM (inactive) |  |
| CN(Cc1ccccc1)C(=S)S [SODIUM BENZYL(METHYL)CARBAMODITHIOATE] | 40.1 µM (inactive) | 98.6 µM (inactive) |  | 34 µM (inactive) | 40.8 µM (inactive) | 20.6 µM (inactive) | 78.7 µM (inactive) | > 100 µM (inactive) | 52.2 µM (inactive) |  | 37.5 µM (inactive) | 23.3 µM (inactive) |  | 47 µM (inactive) | 45.1 µM (inactive) | 28.4 µM (inactive) | 68.2 µM (inactive) |
| O=C1NC(=S)NC(=O)C1C(c1ccc(O)cc1)C1C(=O)NC(=S)NC1=O.c1ccncc1 | > 100 µM (inactive) | > 100 µM (inactive) | > 100 µM (inactive) | > 100 µM (inactive) | > 100 µM (inactive) |  |  |  | > 100 µM (inactive) | > 100 µM (inactive) | > 100 µM (inactive) | > 100 µM (inactive) |  |  | > 100 µM (inactive) | > 100 µM (inactive) | > 100 µM (inactive) |
| CCOC(=O)C1C(c2ccc3c(c2)OCO3)c2c(n[nH]c2O)CC1(C)O (configuration not stated) | > 100 µM (inactive) |  | > 100 µM (inactive) | > 100 µM (inactive) | > 100 µM (inactive) | > 100 µM (inactive) | > 100 µM (inactive) | > 100 µM (inactive) | > 100 µM (inactive) | > 100 µM (inactive) | > 100 µM (inactive) | > 100 µM (inactive) | > 100 µM (inactive) | > 100 µM (inactive) | > 100 µM (inactive) | > 100 µM (inactive) | > 100 µM (inactive) |
| COC(=O)c1c([N+](=O)[O-])ncn1[C@H]1OC[C@@H](OC(C)=O)[C@@H](OC(C)=O)[C@@H]1OC(C)=O | > 100 µM (inactive) | > 100 µM (inactive) | > 100 µM (inactive) | > 100 µM (inactive) | > 100 µM (inactive) | > 100 µM (inactive) |  | > 100 µM (inactive) | > 100 µM (inactive) | > 100 µM (inactive) | > 100 µM (inactive) | > 100 µM (inactive) | > 100 µM (inactive) | > 100 µM (inactive) | > 100 µM (inactive) | > 100 µM (inactive) | > 100 µM (inactive) |
| CC(=O)O[C@H]1CC(C)(C)C(=C=C/C(C)=C/C=C/C=C/C=C(C)/C=C2C=C(/C=C/[C@@]34O[C@]3(C)C[C@@H](O)CC4(C)C)C(=O)O/2)[C@](C)(O)C1 | 8.09 µM (inactive) | 1.62 µM (inactive) | 4.22 µM (inactive) | 13.5 µM (inactive) | 7.93 µM (inactive) | 6.76 µM (inactive) |  | 10 µM (inactive) | 2.88 µM (inactive) | 30.6 µM (inactive) | 21.2 µM (inactive) | 11.7 µM (inactive) | 17.8 µM (inactive) | > 10 µM (inactive) | 5.14 µM (inactive) | 4.75 µM (inactive) | 12.6 µM (inactive) |
| COC(=O)c1cc(O)c(O)c(O)c1-c1c(O)c(O)c(O)c(SC[C@H](NC(=O)OCc2ccccc2)C(=O)OCc2ccccc2)c1C(=O)OC | 29.2 µM (inactive) | 21.2 µM (inactive) | 22.6 µM (inactive) | 35.3 µM (inactive) | 22.3 µM (inactive) |  | 29.6 µM (inactive) | 20.3 µM (inactive) | 28.8 µM (inactive) | 30.8 µM (inactive) | 28.3 µM (inactive) | 17.9 µM (inactive) | 28.4 µM (inactive) | 19.7 µM (inactive) | 22 µM (inactive) | 26.5 µM (inactive) | 26.2 µM (inactive) |
| COc1ccc(C2(O)c3ccccc3C(=O)N(C)C2(O)c2ccc(OC)cc2)cc1 (configuration not stated) | 35.2 µM (inactive) |  | 33.9 µM (inactive) | 32.9 µM (inactive) | 48.1 µM (inactive) | 36.3 µM (inactive) | 0.396 µM (active) |  | 28.6 µM (inactive) | > 100 µM (inactive) | 28.5 µM (inactive) | 53.3 µM (inactive) | > 100 µM (inactive) | 86.7 µM (inactive) | > 100 µM (inactive) | 25.2 µM (inactive) | 36.3 µM (inactive) |
| CCOc1ccc2nc(NC(=O)C(=O)C(c3cnc4ccccc4n3)[N+](=O)[O-])sc2c1 (configuration not stated) | > 100 µM (inactive) | > 100 µM (inactive) | > 100 µM (inactive) | > 100 µM (inactive) | > 100 µM (inactive) |  | > 100 µM (inactive) | > 100 µM (inactive) | 41.4 µM (inactive) | 69.2 µM (inactive) | > 100 µM (inactive) | > 100 µM (inactive) | > 100 µM (inactive) | 96.8 µM (inactive) | 74.5 µM (inactive) | > 100 µM (inactive) | > 100 µM (inactive) |
| Cc1ccc2ccccc2c1CC1S(=O)(=O)OCCOS1(=O)=O | 9.57 µM (inactive) |  | 11.2 µM (inactive) | 13.1 µM (inactive) |  | 7.64 µM (inactive) |  |  |  | 12.7 µM (inactive) | 11.4 µM (inactive) | 12.9 µM (inactive) |  | 16.2 µM (inactive) | 16 µM (inactive) | 11.2 µM (inactive) |  |
| Cn1c(=O)c2c(nc3n(CC(O)CCl)c(=O)ccn23)n(C)c1=O (configuration not stated) | 29.9 µM (inactive) | 22.6 µM (inactive) | > 100 µM (inactive) | 47.5 µM (inactive) | 36.5 µM (inactive) |  | 41.4 µM (inactive) | 29.1 µM (inactive) | 20.8 µM (inactive) | 60 µM (inactive) | 30.8 µM (inactive) | 52.7 µM (inactive) | 46.7 µM (inactive) | 42.9 µM (inactive) | 42.7 µM (inactive) | 61.8 µM (inactive) | 45.9 µM (inactive) |
| CC(C)=CC1C(COC(=O)c2ccccc2Cl)C1(C)C (configuration not stated) | 35.7 µM (inactive) | 30.4 µM (inactive) | 41.3 µM (inactive) | 35.5 µM (inactive) | > 100 µM (inactive) | 42.2 µM (inactive) | 19 µM (inactive) |  | 23.5 µM (inactive) | > 100 µM (inactive) | 29.6 µM (inactive) | 75 µM (inactive) |  | 25.8 µM (inactive) | 31.8 µM (inactive) | 42.2 µM (inactive) | 28.4 µM (inactive) |
| C=C(C)[C@@]1(O)CCC[C@H]1NC(=O)OC(C)(C)C | > 100 µM (inactive) | > 100 µM (inactive) | > 100 µM (inactive) | > 100 µM (inactive) |  |  |  | > 100 µM (inactive) | > 100 µM (inactive) | > 100 µM (inactive) | > 100 µM (inactive) | > 100 µM (inactive) |  | > 100 µM (inactive) | > 100 µM (inactive) | > 100 µM (inactive) | > 100 µM (inactive) |
| O=C(CSc1nnc(SCC(=O)NN=C2CCCCC2)s1)NN=C1CCCCC1 | > 100 µM (inactive) | > 100 µM (inactive) | > 100 µM (inactive) | > 100 µM (inactive) | > 100 µM (inactive) | > 100 µM (inactive) |  | > 100 µM (inactive) | > 100 µM (inactive) | > 100 µM (inactive) | > 100 µM (inactive) | > 100 µM (inactive) | > 100 µM (inactive) | > 100 µM (inactive) | > 100 µM (inactive) | > 100 µM (inactive) | > 100 µM (inactive) |
| O=C([C@H](O)[C@@H](O)c1cccc(Cl)c1)C12CC3CC(CC(C3)C1)C2 | 1.85 µM (inactive) | 4.32 µM (inactive) | 1.87 µM (inactive) | 3.15 µM (inactive) | 1.73 µM (inactive) | 2.07 µM (inactive) | 2.61 µM (inactive) | 1.72 µM (inactive) | 1.34 µM (inactive) | 1.82 µM (inactive) | 2.37 µM (inactive) | 2.45 µM (inactive) | 1.77 µM (inactive) | 2.07 µM (inactive) | 1.79 µM (inactive) | 2.4 µM (inactive) |  |
